Tested on: SYO-1 complex spheroid growth, percent test/control
Assay: Anticancer human tumor SYO-1 cell line growth inhibition [Asc];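 further: compound exposure lasted 7 days after spheroids grew 3 days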;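 on viability, T/C: 100% = DMSO vehicle control viability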
Conditions: for IC50: curve of first compound; for viability, T/C: stronger effect = lower value
Experimental: Multicellular complex tumor spheroid response to apoptosis pathway targeting inhibitors Alrizomadlin, Pelcitoclax, and Dasminapant in combination with a variety of drugs and investigational agents in selected tumor cell lines
The MDM2 inhibitor alrizomadlin, the Bcl-2/Bcl-xL inhibitor pelcitoclax, and the IAPs inhibitor dasminapant were evaluated both individually and in combination with standard of care and investigational anticancer small molecules within a complex spheroid model of solid tumors. . Complex spheroids include a stromal component modeled by human endothelial cells (HUVEC) and fibroblasts modeled by human mesenchymal stem cells (MSCs). The concentration ranges selected for each drug and investigational agent were based upon clinically achievable concentrations if the clinical Cmax of the agent was known.
Compounds. The drugs and investigational agents: alrizomadlin (APG-115; NSC831270), pelcitoclax (APG-1252; NSC835773), dasminapant (APG-1387;NSC834197), TAK-243 (NSC785004), copanlisib (NSC809693), olaparib (NSC753686), talazoparib (NSC767125), cobimetinib (NSC 768068), eltanexor (KPT-8602, NSC 794443), abemaciclib (NSC 768073), sotorasib (NSC818433), adagrasib (NSC 831453), MRTX-1133 (NSC 836407), Iadademestat (ORY1001, NSC 806812), and RMC-4630 (NSC839698), were obtained from the NCI Developmental Therapeutics Program Chemical Repository. The FDA-approved anticancer drug set is available from the Developmental Therapeutics Program at https://dtp.cancer.gov/organization/dscb/obtaining/available plates.htm. […] The stock solutions were prepared in dimethyl sulfoxide (DMSO, Sigma-Aldrich, St. Louis, MO, cat. D2650) at 800-fold the tested concentration and stored at -70 degrees C prior to their use. All drugs and investigational agents were tested over a range starting from a high concentration at or near the clinical Cmax and decreasing in half-log increments. If the clinical Cmax for an agent had not been determined, the highest concentration tested was 10 microM.
The patient-derived cancer (PDC) cell lines include five colon adenocarcinomas: 186277-243-T-J2-PDC, 616215-338-R-J1-PDC, 439559-082-T-J2-PDC, 463943-066-T-J2-PDC, and 519858-162-T-J1-PDC; three pancreatic carcinomas: 323965-272-R-J2-PDC, 521955-158-R6-J3-PDC, and 521955-158-R2-J5-PDC; two uterine sarcomas: 327498-152-R-J2-PDC and 993429-296-R-J1-PDC; two rhabdomyosarcomas: 755483-174-R-J1-PDC and 772245-204-R-J1-PDC; two soft tissue sarcomas: 126254-015-R-J1-PDC and 494315-158-R-J1-PDC; two malignant fibrous histiocytomas: 317291-083-R-J1-PDC and 596521-263-R-J1-PDC; two breast carcinomas: 171881-019-R-J1-PDC and 885512-296-R-J2-PDC; and one ovarian carcinoma: 6556581-035-R-J-PDC were obtained from the NCI PDMR, (https://pdmr.cancer.gov). The established cell lines HSSY-2 synovial sarcoma (RRID:CVCL 8719), SYO-1 synovial sarcoma (RRID:CVCL_7146), MPNST malignant peripheral neural sheath tumor were obtained from the Sloan Kettering Institute. The following established cell lines were purchased from the American Type Culture Collection (ATCC, Manassas, VA), Sor the received from the NCI repository:, PANC-1 pancreatic carcinoma (CRL-1469, RRID:CVCL_0480), OVCAR-5 ovarian carcinoma (RRID:CVCL_1628), OVCAR-8 ovarian carcinoma (RRID:CVCL_1629), , MCF-7 breast carcinoma (CRL-12584, RRID:CVCL_0031), MDA-MB-231 breast carcinoma (CRL-12532, RRID:CVCL_0062), NCI-H1876 small cell lung carcinoma (CRL-5902, RRID:CVCL_1503), NCI-H510A small cell lung carcinoma (HTB-184, RRID:CVCL_1565), NCI-H1417 (CRL-5869, RRID:CVCL_1469), and NCI-H196 small cell lung carcinoma (CRL-5823, RRID:CVCL_1509). Dr. Peter Houghton (Greehey Children's Cancer Research Institute, University of Texas Health Science Center, San Antonio, TX) provided Rh-18 rhabdomyosarcoma (RRID:CVCL_1659). Pooled donor human umbilical vein endothelial cells (HUVEC, Lonza, cat. CC-2519) and human mesenchymal stem cells (hMSC, Lonza, cat. PT-2501) were purchased from Lonza (Walkersville, MD).
Cell Culture. […]

- IC50 (second compound 0.00949 µM): > 100 nM
- IC50 (second compound 0.03 µM): > 100 nM
- IC50 (second compound 0.0949 µM): > 100 nM
- IC50 (second compound 0.3 µM): < 0.316 nM
- IC50 (second compound 0.949 µM): < 0.316 nM
- IC50 (second compound 3 µM): < 0.316 nM
SMILES: NC1CCC(NC2CC2c2ccccc2)CC1 (configuration not stated) + CCN1C(C(=O)NC23CCC(C(=O)O)(CC2)CC3)C(c2cccc(Cl)c2F)C2(C(=O)Nc3cc(Cl)ccc32)C12CCCCC2
- viability, T/C (second compound 0.00949 µM, first compound 0.000316 µM): 102%
- viability, T/C (second compound 0.00949 µM, first compound 0.001 µM): 96.7%
- viability, T/C (second compound 0.00949 µM, first compound 0.00316 µM): 88%
- viability, T/C (second compound 0.00949 µM, first compound 0.01 µM): 88%
- viability, T/C (second compound 0.00949 µM, first compound 0.0316 µM): 94.2%
- viability, T/C (second compound 0.00949 µM, first compound 0.1 µM): 91.1%
- viability, T/C (second compound 0.03 µM, first compound 0.000316 µM): 98%
- viability, T/C (second compound 0.03 µM, first compound 0.001 µM): 96.8%
- viability, T/C (second compound 0.03 µM, first compound 0.00316 µM): 88.9%
- viability, T/C (second compound 0.03 µM, first compound 0.01 µM): 84.6%
- viability, T/C (second compound 0.03 µM, first compound 0.0316 µM): 85.9%
- viability, T/C (second compound 0.03 µM, first compound 0.1 µM): 89.5%
- viability, T/C (second compound 0.0949 µM, first compound 0.000316 µM): 84.9%
- viability, T/C (second compound 0.0949 µM, first compound 0.001 µM): 74.4%
- viability, T/C (second compound 0.0949 µM, first compound 0.00316 µM): 57.8%
- viability, T/C (second compound 0.0949 µM, first compound 0.01 µM): 53.4%
- viability, T/C (second compound 0.0949 µM, first compound 0.0316 µM): 55.2%
- viability, T/C (second compound 0.0949 µM, first compound 0.1 µM): 51.7%
- viability, T/C (second compound 0.3 µM, first compound 0.000316 µM): 18.6%
- viability, T/C (second compound 0.3 µM, first compound 0.001 µM): 18.2%
- viability, T/C (second compound 0.3 µM, first compound 0.00316 µM): 6.03%
- viability, T/C (second compound 0.3 µM, first compound 0.01 µM): 8.44%
- viability, T/C (second compound 0.3 µM, first compound 0.0316 µM): 13.7%
- viability, T/C (second compound 0.3 µM, first compound 0.1 µM): 11.2%
- viability, T/C (second compound 0.949 µM, first compound 0.000316 µM): 1.71%
- viability, T/C (second compound 0.949 µM, first compound 0.001 µM): 2.22%
- viability, T/C (second compound 0.949 µM, first compound 0.00316 µM): 1.78%
- viability, T/C (second compound 0.949 µM, first compound 0.01 µM): 1.87%
- viability, T/C (second compound 0.949 µM, first compound 0.0316 µM): 1.95%
- viability, T/C (second compound 0.949 µM, first compound 0.1 µM): 1.33%
- viability, T/C (second compound 3 µM, first compound 0.000316 µM): 1.21%
- viability, T/C (second compound 3 µM, first compound 0.001 µM): 1.53%
- viability, T/C (second compound 3 µM, first compound 0.00316 µM): 2.09%
- viability, T/C (second compound 3 µM, first compound 0.01 µM): 1.25%
- viability, T/C (second compound 3 µM, first compound 0.0316 µM): 1.49%
- viability, T/C (second compound 3 µM, first compound 0.1 µM): 1.44%

Reference: PubChem BioAssay AID1963432 (Molecular Pharmacology Branch, DTP, NCI, 2024)
